The supplement of paper PMC10981050
Where “and” joins values, the source holds several entries; their conditions need not be identical. Equal entries are not always repeated. ± gives the standard deviation of the averaged measurements.

What was measured:
Assay in all cases: cell viability relative to vehicle control; higher = less cytotoxic
[1] = tested on: OCI-AML2; conditions: SRSF2 genotype: SRSF2 WT
Protocol: (§1)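 Isogenic SRSF2 WT and CRISPR SRSF2 P95 mutant clones of MOLM14, OCI-AML2 and MARIMO were exposed to ROCK inhibitors at 7 doses (0.037 to 29.9 µM) for 48 h. Viability was read by CellTiter-Glo luminescence and normalised to the vehicle control on each plate (%).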

[2] = tested on: MOLM14
Protocol: as §1

[3] = tested on: MARIMO; conditions: SRSF2 genotype: SRSF2 WT
Protocol: as §1

[4] = 0.037 µM, SRSF2 genotype: SRSF2 WT
[5] = 0.129 µM, SRSF2 genotype: SRSF2 WT
[6] = 0.369 µM, SRSF2 genotype: SRSF2 WT
[7] = 0.997 µM, SRSF2 genotype: SRSF2 WT
[8] = 3.49 µM, SRSF2 genotype: SRSF2 WT
[9] = 9.97 µM, SRSF2 genotype: SRSF2 WT
[10] = 29.9 µM, SRSF2 genotype: SRSF2 WT

Row | SMILES | cell viability ([1]; 0.037 µM) [%] | cell viability ([1]; 0.129 µM) [%] | cell viability ([1]; 0.369 µM) [%] | cell viability ([1]; 0.997 µM) [%] | cell viability ([1]; 3.49 µM) [%] | cell viability ([1]; 9.97 µM) [%] | cell viability ([1]; 29.9 µM) [%] | cell viability [2, 4] [%] | cell viability [2, 5] [%] | cell viability [2, 6] [%] | cell viability [2, 7] [%] | cell viability [2, 8] [%] | cell viability [2, 9] [%] | cell viability [2, 10] [%] | cell viability ([3]; 0.037 µM) [%] | cell viability ([3]; 0.129 µM) [%] | cell viability ([3]; 0.369 µM) [%] | cell viability ([3]; 0.997 µM) [%] | cell viability ([3]; 3.49 µM) [%] | cell viability ([3]; 9.97 µM) [%] | cell viability ([3]; 29.9 µM) [%] | cell viability ([2]; 0.037 µM, SRSF2 genotype: SRSF2 P95 mutant) | cell viability ([2]; 0.129 µM, SRSF2 genotype: SRSF2 P95 mutant)
1 | C[C@@H](N)c1ccc(C(=O)Nc2ccnc3[nH]ccc23)cc1 | 104 ± 7.8 | 99.9 ± 1 | 93.2 ± 4.4 | 85 ± 1.9 | 52 ± 2 | 30.4 ± 4.6 | 7.89 ± 0.6 | 90.1 ± 21 | 94 ± 13 | 87.1 ± 18 | 81.4 ± 17 | 51.8 ± 14 | 29.4 ± 7.5 | 7.13 ± 1.6 | 99.5 ± 4.6 | 101 ± 3.1 | 96.2 ± 1.6 | 101 ± 1.3 | 93.99 ± 0.9 | 84.1 ± 7.2 | 35.1 ± 0.58 |  | 
2 | CC1=C(C(=O)Nc2ccc3[nH]ncc3c2)C(c2ccc(F)cc2)NC(=O)N1 (stereo not given) | 110 ± 6.1 | 103 ± 7.4 | 102 ± 4.6 | 101 ± 6.8 | 78.3 ± 5.9 | 48.1 ± 6.7 | 39 ± 4.3 | 96.5 ± 12 | 96.7 ± 4.2 | 102 ± 14 | 95.8 ± 12 | 78.3 ± 14 | 66.3 ± 14 | 54.9 ± 10 | 102.6 ± 0.94 | 102 ± 2.7 | 100 ± 2.2 | 101 ± 4.8 | 96.1 ± 2.5 | 97.6 ± 13 | 99.8 ± 5.5 |  | 
3 | CC1=C(C(=O)Nc2cc3cn[nH]c3cc2F)C(c2ccc(C(F)(F)F)cc2)CC(=O)N1 (stereo not given) | 107 ± 1.6 | 101 ± 5 | 96.9 ± 7.2 | 93.11 ± 0.21 | 68 ± 7.8 | 43.5 ± 9.3 | 39.4 ± 6 | 94 ± 18 | 96.4 ± 9.5 | 90.1 ± 19 | 82.5 ± 16 | 66.2 ± 16 | 60.3 ± 14 | 53 ± 13 | 103 ± 1.2 | 100.4 ± 0.44 | 96 ± 7.2 | 103 ± 5.5 | 98.9 ± 4.7 | 92.2 ± 11 | 95 ± 8.2 | 112% and 102% and 97.1% | 107% and 105% and 103%
